The subject of test [1] is MHCC97 H cells. Nature of the test: MTT IC50 determination in MHCC97 H. The class given is cell-based, human. The settings on record: MTT method, read-out: IC50 in MHCC97 H (screen). How it is done:
(§1) Cell viability was assessed using MTT experiments. Cells, together with KA, were seeded into 96-well plates at a density of 2000 cells per well with three replicates per condition. DMSO was used as a control. At designated time points, 20 μL of MTT (Sigma, St. Louis, MO, USA) solution was added to each well and incubated for 3 h. After removing the culture medium, 200 μL of DMSO was added to dissolve the formazan crystals. The absorbance was then measured using a microplate reader at a wavelength of 560 nm.
Background: Formazan colour is commonly taken as a measure of viable cells.

Test [2] relates to MHCC97H and SMMC 7721 cells. Nature of the test: CCK8 cell viability screen of mulberry active substances. The class given is cell-based, human. The following applies: 10 μM, 48 h. The method, then: The CCK8 assay is used to investigate the effect of compounds on cell viability by measuring the amount of formazan dye. Firstly, 8000 cells were inoculated into each well of the 96-well plate with three replicates per condition. At the same time, add the corresponding mulberry active substances. After 48 h of incubation, 20 μL of the Cell Counting Kit-8 (CCK8) reagent (Beyotime, Shanghai, China) was added to each well. After being cultured under 37 °C and 5% carbon dioxide for 2–3 h, the absorbance was measured at 450 nm.

In test [3] the test system is HCC cells (MHCC97 H and SMMC 7721). Nature of the test: Transwell migration (without Matrix-Gel) and invasion (with Matrix-Gel) assay. The class given is cell-based, human. The settings on record: Sorafenib 10 μM alone or 10 μM KA and 10 μM Sorafenib, 48 h. How it is done: The Transwell assay measured the migration and invasion of cells by calculating the number of cells that passed through the material. Prior to the Transwell migration assay, cells were serum-starved in FBS-free culture medium for 24 h. The cells were then detached using trypsin, washed 1–2 times with PBS, and resuspended in DMEM. Approximately 50,000–100,000 cells were seeded into the upper chamber of the Transwell insert. The lower chamber was filled with 600 μL of complete medium containing the test compound. […] After incubation, the migrated cells on the lower membrane surface were fixed with 4% paraformaldehyde (PFA) and stained with 0.1% crystal violet. Non-migrated cells remaining in the upper chamber were carefully removed with a cotton swab. Finally, the stained cells were visualized under a microscope. If matrix gel was needed, it should be added according to the instructions (Beyotime, Shanghai, China) before the cells were seeded.

The subject of test [4] is MHCC97 H cells. More on the design: method as in MCE website (https://www.medchemexpress.cn/). The following applies: ref MCE website (https://www.medchemexpress.cn/); read-out: IC50 of Sorafenib in MHCC97 H; cited from earlier work.
The test system of a further test is SMMC 7721 cells. Set-up: method as in MCE website (https://www.medchemexpress.cn/). The settings on record: ref MCE website (https://www.medchemexpress.cn/); read-out: IC50 of Sorafenib in SMMC 7721; cited from earlier work.
Test [5] concerns normal human liver cells (L-O2). Nature of the test: MTT IC50 determination in normal liver cells. The format is cell-based. The settings on record: L-O2, MTT method. How it is done:
as §1

In test [6] the test system is MHCC97 H cells. Nature of the test: Transwell migration screen of selected compounds. The following applies: compounds at an IC50 concentration. The format is cell-based, human. The method, then:
The Transwell assay measured the migration and invasion of cells by calculating the number of cells that passed through the material. Prior to the Transwell migration assay, cells were serum-starved in FBS-free culture medium for 24 h. The cells were then detached using trypsin, washed 1–2 times with PBS, and resuspended in DMEM. Approximately 50,000–100,000 cells were seeded into the upper chamber of the Transwell insert. The lower chamber was filled with 600 μL of complete medium containing the test compound. The Transwell system was incubated for 12 h under standard culture conditions (37 °C, 5% CO2). After incubation, the migrated cells on the lower membrane surface were fixed with 4% paraformaldehyde (PFA) and stained with 0.1% crystal violet. Non-migrated cells remaining in the upper chamber were carefully removed with a cotton swab. Finally, the stained cells were visualized under a microscope. If matrix gel was needed, it should be added according to the instructions (Beyotime, Shanghai, China) before the cells were seeded.

For the test “YWHAB (tyrosine …)”, the target named is T1, YWHAB (tyrosine 3-monooxygenase/tryptophan 5-monooxygenase activation protein beta), endogenous in HCC cells (human (endogenous in MHCC97 H and SMMC 7721)), P31946.
T1 chain: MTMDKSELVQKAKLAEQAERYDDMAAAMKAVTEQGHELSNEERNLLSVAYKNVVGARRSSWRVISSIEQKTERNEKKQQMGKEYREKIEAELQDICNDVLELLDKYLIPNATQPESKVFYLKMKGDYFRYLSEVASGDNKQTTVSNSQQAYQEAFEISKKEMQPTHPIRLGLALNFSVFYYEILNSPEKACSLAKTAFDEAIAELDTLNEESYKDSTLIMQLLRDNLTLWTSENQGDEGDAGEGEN
Nature of the test: native gel or EMSA; Blue native PAGE of cell lysates (IP cell lysis buffer, Coomassie G-250), then immunoblot; cells treated with KA or DMSO (less dimer with KA). The following applies: remark: other sources report otherwise.

A further test concerns the target T2, FLAG-YWHAB, P31946.
T2 chain: T1 chain
The description is as above. The following applies: remark: other sources report otherwise.

Read-outs that look alike come from different tables or passages of the source.

For the molecule `CC(C)=CCc1c(-c2ccc(O)cc2O)oc2c([C@H]3C=C(C)C[C@@H](c4ccc(O)cc4O)[C@@H]3C(=O)c3ccc(O)cc3O)c(O)cc(O)c2c1=O` [Kuwanon G, kuwanon G], the IC50 in the test on MHCC97 H cells [1] is below 20 µM.
Regarding `CC(C)(O)CCc1c(-c2ccc(O)cc2O)oc2c3c(cc(O)c2c1=O)OC(C)(C)C=C3` [Morusinol], the IC50 with MHCC97 H cells [1] (Homo sapiens, MHCC97H) is below 20 µM.
In the case of sanggenone C, the “viability of HCC cells (CCK8)” value in [2] is given as “significantly inhibited the viability of HCC cells”. For the same molecule, the half-maximal inhibitory concentration (IC50) with MHCC97 H cells [1] is below 20 µM.
Regarding `CC(C)=CCc1c(-c2ccc(O)cc2O)oc2c(CC=C(C)C)c(O)cc(O)c2c1=O` [Mulberrin], in the test on MHCC97 H cells [1], the IC50 is below 20 µM.
Take `CNC(=O)c1cc(Oc2ccc(NC(=O)Nc3ccc(Cl)c(C(F)(F)F)c3)cc2)ccn1` [Sorafenib]: in [3], the “HCC cell migration/invasion (Transwell, polycarbonate membrane or Matrigel)” value is “no significant effect”. In addition, the IC50 with MHCC97 H cells [4] and with SMMC 7721 cells was around 10 µM each time.
For `CC(C)=CCC/C(C)=C/Cc1c(O)ccc(-c2oc3cc(O)cc(O)c3c(=O)c2CC=C(C)C)c1O` [L8-06, 3'-geranyl-3-prenyl-2',4',5,7-tetrahydroxyflavone], the IC50 in the test with MHCC97 H cells [1] (Homo sapiens, MHCC97H) is below 20 µM.
Still for that read-out and setting: the result for `CC(C)=CCc1c(-c2ccc(O)cc2O)oc2c3c(cc(O)c2c1=O)OC(C)(C)C=C3` [Morusin] reads below 20 µM.
For the molecule sanggenone D, the 50% inhibitory concentration (IC50) in the test with MHCC97 H cells [1] was below 20 µM.
For the molecule `Cc1cc2c3c(c1)-c1c(O)cc(-c4cc5ccc(O)cc5o4)cc1OC3(c1ccc(O)cc1O)Oc1cc(O)ccc1-2` (centres unmarked) [Albanol B, albanol B], in [2], the “viability of HCC cells (CCK8)” value was “significantly inhibited the viability of HCC cells”. In addition, the 50% inhibitory concentration (IC50) in the test on MHCC97 H cells [1] was below 20 µM. In addition, the “IC50 in normal liver cells” value in [5] was “relatively low”. Also, the “migration of MHCC97 H (Transwell)” value in the test on MHCC97 H cells [6] was “significantly inhibited the migration of MHCC97 H”.
For sanggenol L, the “viability of HCC cells (CCK8)” value in test [2] is on record as “significantly inhibited the viability of HCC cells”. Further, the IC50 in the test on MHCC97 H cells [1] was below 20 µM. The “migration of MHCC97 H (Transwell)” value in the test with MHCC97 H cells [6] is “significantly inhibited the migration of MHCC97 H”.

B1: YWHAB (tyrosine 3-monooxygenase/tryptophan 5-monooxygenase activation protein beta), endogenous in HCC cells, P31946 1-246 (natural protein)
chain: T1 chain
In the test with YWHAB (tyrosine …), B1 displayed a stoichiometry N of 2.

B2: FLAG-YWHAB, P31946 1-246 (natural protein)
chain: T1 chain
In the test with FLAG-YWHAB, P31946, B2 showed a stoichiometry N of 2.

One may read the IC50 as the midpoint of a concentration-inhibition curve. For orientation: stoichiometry N means the number of molecules, sites or subunits per partner or assembly.

The record behind these values is publication PMC12523843, “Kuwanon A Targeted YWHAB in Hepatocellular Carcinoma Cells to Inhibit the Raf/MEK/ERK Signaling Pathway” (Cells, 2025).
